The test concerns the target T1, E. coli DdlB enzyme (D-alanine:D-alanine ligase) (Escherichia coli, UniProt P07862).
T1 construct: made in house; host or cells: E. coli
Briefly: biochemical. As to conditions: for remaining activity at 1800 µM: tested concentration 1.8 mM; for remaining activity at 1700 µM: tested concentration 1.7 mM; for remaining activity at 2000 µM: tested concentration 2.0 mM; for remaining activity at 2300 µM: tested concentration 2.3 mM; for remaining activity at 2600 µM: tested concentration 2.6 mM; for remaining activity at 2400 µM: tested concentration 2.4 mM; for remaining activity at 2200 µM: tested concentration 2.2 mM; for remaining activity at 1900 µM: tested concentration 1.9 mM; for remaining activity at 2100 µM: tested concentration 2.1 mM; for remaining activity at 500 µM: at 0.5 mM, read-out: DdlB inhibition, RA (Residual Activity); for remaining activity at 3100 µM: tested concentration 3.1 mM. The method, then: The fragment library was assayed in a DdlB inhibition assay, where fragments were tested for their ability to inhibit the D-Ala-adding activity of DdlB ligase. The orthophosphate formed during the enzymatic reaction was measured spectrophotometrically using malachite green reagent.
A recombinant E. coli DdlB enzyme (D-alanine:D-alanine ligase) was expressed in E. coli[11]. […] The final DMSO concentration was 5%. […] All experiments were performed in duplicates. […] IC50 values were determined by measuring the residual activities in quadruplicate at seven different compound concentrations and calculated using in GraphPad Prism (GraphPad Software, San Diego, CA, USA).

The mark [1] stands for this setting: residual activity of DdlB, fragment library screening, tested concentration 2.5 mM, read-out: DdlB RA.
[2] abbreviates: residual activity, read-out: DdlB RA.
[3] abbreviates: tested concentration 2.5 mM, read-out: DdlB RA.
Where [4] appears, read: fragment library screening, read-out: DdlB RA.

Where two headings read alike, the source gives them in different places.

Consider `OCc1ccncc1` [FLD197], for which, under setting [1], the remaining activity at 2500 µM amounted to 100%. On the same count and under the same terms, for `O=C(O)Cc1cccnc1` [FLD083] the value was 98%. Consider `O=c1[nH]c2cc(S(=O)(=O)N3CCCCC3)ccc2o1` [Compound 8013-5568], for which, where the note is “read-out: DdlB RA”, the remaining activity at 1800 µM came to 103%. In the case of `CNC(C)C(O)c1ccccc1` (centres unmarked) [FLD102], under setting [1], the remaining activity at 2500 µM was 97%. In the case of `Nc1cc(=O)[nH]o1` [Compound 8020-8247], the remaining activity at 5000 µM (tested concentration 5.0 mM, read-out: DdlB RA) came to 97%. `COCCn1nc(-c2cocn2)c2c1CCN(C(C)C)C2` [SD01-0107]: the remaining activity at 1700 µM under setting [2] was found to be 92%. As for `CC(=O)Nc1cc(-n2cnnc2)ccc1C(=O)O` [Compound 8020-0076], under setting [2], the remaining activity at 2000 µM is 97%. On to `Cc1ccc(F)c(-n2cc(C(=O)O)nn2)c1` [Compound T640-0432], for which the remaining activity at 2300 µM (read-out: DdlB RA) amounted to 100%. On to `O=S(=O)(O)CCN1CCOCC1` [Compound 0083-0027], for which, for the setting “read-out: DdlB RA”, the remaining activity at 2600 µM stood at 91%. As for `O=S(=O)(c1ccccc1)N1CCN2CCCC2C1` (centres unmarked) [Compound Y206-5298], the remaining activity at 2300 µM under setting [2] is 92%. Turning to `CCNC(=O)N1CCCN(C)c2ccccc21` [Compound T599-3176], the remaining activity at 2400 µM (read-out: DdlB RA) turned out to be 96%.

As to `CN(C)S(=O)(=O)Cc1ccccc1F` [Compound Y300-2671], the remaining activity at 2500 µM under setting [3] amounted to 95%. Turning to `N#Cc1cccc2cccc(S(=O)(=O)O)c12` [Compound 1326-0564], the remaining activity at 2200 µM (read-out: DdlB RA) was 96%. With `Cc1cc(NC(=O)C2CC(=O)N(C3CCCCC3)C2)no1` (centres unmarked) [Compound Y031-2007], the remaining activity at 1900 µM under setting [2] is 83%. Regarding `Cc1cc(C)cc(NC(=O)N(C)CC2CCOC2)c1` (centres unmarked) [Compound S213-1693], the remaining activity at 2100 µM under setting [2] is 96%. As for `O=C(O)[C@@H]1[C@H]2CC[C@H](CC2)[C@@H]1C(=O)NCc1ccco1` [Compound Y206-3693], under setting [4], the remaining activity at 1800 µM worked out at 92%. In the case of `CCOC(=O)c1ccc2oc(=O)[nH]c2c1` [Compound G373-0551], the remaining activity at 2400 µM (read-out: DdlB RA) turned out to be 92%.

For `c1cnc(-c2nc(C3CCNC3)no2)cn1` (centres unmarked) [Compound S069-3207], the remaining activity at 1700 µM (read-out: DdlB RA) is 95%. With `CNC(=O)NCCc1c[nH]c2ncccc12` [Compound M509-0295], under setting [2], the remaining activity at 2300 µM came to 80%. For the compound `Cc1nc2ccc(Br)cn2c1C(=O)O` [Compound 8019-4469], under setting [2], the remaining activity at 2000 µM came to 94%. `COC(C(=O)NC1CC1)c1ccccc1` (centres unmarked) [Compound 8010-8989]: the remaining activity at 2400 µM (read-out: DdlB RA) was determined as 94%. Take `Oc1nc(-c2ccc(F)cc2)no1` [Compound C066-5406]: for the setting “tested concentration 2.8 mM, read-out: DdlB RA”, the remaining activity at 2800 µM came out at 97%. For `Cc1cc(C(=O)O)n2nc(C)c(Cl)c2n1` [Compound Y504-8761], the remaining activity at 2200 µM under setting [2] is 98%. Consider `Cc1ccc(-c2ccnc3c(C(=O)O)cnn23)cc1` [Compound 10, 7-(p-Tolyl)pyrazolo[1,5-a]pyrimidine-3-carboxylic acid], for which the remaining activity at 500 µM was determined as 101%. Turning to `CCC1(C(=O)NC2CCCCCC2)CCCCC(=O)N1` (centres unmarked) [Compound S515-0307], the remaining activity at 2100 µM under setting [2] was found to be 99%. In the case of `Cc1cc2nc(COC(=O)c3ccco3)cc(=O)n2o1` [Compound G265-0750], the remaining activity at 1800 µM (read-out: DdlB RA) came out at 92%. Consider `CC1SC(c2ccc(Cl)c(Cl)c2)NC1=O` (centres unmarked) [Compound 8011-7610], for which the remaining activity at 1900 µM (read-out: DdlB RA) was determined as 80%. Take `O=C(O)c1cccc(Cl)c1` [FLD071]: under setting [1], the remaining activity at 2500 µM was found to be 100%. Regarding `O=C(c1ccccc1)N1CCC(c2nnc(C3CC3)[nH]2)CC1` [Compound T630-2594], the remaining activity at 1700 µM (read-out: DdlB RA) was found to be 91%. With `O=S(=O)(O)CCN1CCN(CCO)CC1` [Compound 6105-1549], the remaining activity at 2100 µM (read-out: DdlB RA) is 99%. Consider `Cc1onc(-c2ccccc2Cl)c1C(=O)NCC#N` [Compound Y030-1543], for which the remaining activity at 2200 µM under setting [2] amounted to 98%. In the case of `CC(=O)Nc1cccc(C)c1` [FLD063], the remaining activity at 2500 µM under setting [1] came out at 100%.

For `O=S(=O)(c1cccnc1)N1CCC2(CCC2O)CC1` (centres unmarked) [Compound S971-1046], the remaining activity at 1800 µM under setting [2] amounted to 89%. Regarding `Nc1cccc(F)n1` [FLD199], the remaining activity at 2500 µM under setting [1] stood at 91%. Still for that read-out and setting: with `CCOc1ccc(NC(C)=O)cc1` [FLD064] the figure was 98%; with `Cc1ncc(CO)c(CO)c1O` [FLD194], 99%. Take `CCCc1nnc(-c2ccncc2)o1` [Compound Z632-7367]: the remaining activity at 2600 µM (read-out: DdlB RA) was 94%. As for `COc1cc(C#N)ccc1C` [FLD012], the remaining activity at 2500 µM under setting [1] turned out to be 51%. With `Cn1ccnc1S(=O)(=O)O` [Compound 8019-8648], the remaining activity at 3100 µM (read-out: DdlB RA) came to 92%. As for `CN1CCC2(CC1)CNCc1ccccc1O2` [Compound S530-0066], the remaining activity at 2200 µM (read-out: DdlB RA) turned out to be 94%. Turning to `COc1ccc(-n2c(C)ccc2C)nc1` [Compound 8014-1211], under setting [3], the remaining activity at 2500 µM amounted to 22%.

Take `Cc1nc(N)nc(C)c1CCC(=O)O` [FF01-4599]: the remaining activity at 3100 µM (read-out: DdlB RA) stood at 91%. As for `CC1(C)CC(n2nc(O)cc2N)CCO1` (centres unmarked) [Compound 8013-3639], the remaining activity at 2400 µM (read-out: DdlB RA) worked out at 101%.

On to `NC(=O)CN1C(=O)C2(CCCCC2)C1c1ccccc1` (centres unmarked) [Compound S642-0104], for which the remaining activity at 2200 µM under setting [2] stood at 96%. Still for that read-out and setting: for `O=C1Cn2nnc(CNC(=O)NC3CCCC3)c2CN1` [SC45-0107] the value was 93%. Regarding `CCc1c(C)nn(-c2nnn[nH]2)c1O` [Compound 8019-0165], where the note is “read-out: DdlB RA”, the remaining activity at 2600 µM was found to be 76%. `N#Cc1ccc(O)cc1F` [Compound 00CS-0032]: the remaining activity at 3600 µM (residual activity of DdlB, fragment library screening, tested concentration 3.6 mM, read-out: DdlB RA) turned out to be 94%.

With `Cc1cc(C)c2ccc(C(=O)O)cc2n1` [Compound 8019-7912], the remaining activity at 2500 µM under setting [3] came to 88%. With `O=C(O)c1cnn2c(-c3cccc([N+](=O)[O-])c3)ccnc12` [Compound 13, 7–(3-Nitrophenyl)pyrazolo[1,5-a]pyrimidine-3-carboxylic acid], the remaining activity at 500 µM stood at 89%. `CC1=CC(C)(C)Nc2c(C(=O)O)cccc21` [Compound Y021-0768]: the remaining activity at 2300 µM under setting [2] came to 105%. `O=C(O)Cn1nnc(-c2cccc(-n3cccn3)c2)n1` [Compound 8020-8838]: the remaining activity at 1900 µM under setting [4] worked out at 92%. Turning to `CC1CCCN(C(=O)c2nc[nH]c2C(=O)NC(C)C)C1` (centres unmarked) [Compound D340-0776], the remaining activity at 2000 µM under setting [2] worked out at 96%. On to `CCN(CC)S(=O)(=O)c1ncn[nH]1` [Compound 8008-1932], for which the remaining activity at 2400 µM (read-out: DdlB RA) amounted to 93%. Still for that read-out and setting: with `CC(C)n1nnc2cc(C(N)=O)ccc21` [Compound Z606-2126] the figure was 92%. Take `CSCCC(C(=O)O)N1C(=O)NC2NC(=O)NC21` (centres unmarked) [Compound 8011-2492]: for the setting “read-out: DdlB RA”, the remaining activity at 1800 µM is 95%. Consider `Cn1nccc1C(=O)N1CCC(Nc2cccnc2)C1` (centres unmarked) [Compound S059-0159], for which the remaining activity at 2200 µM under setting [2] was found to be 85%. Take `Cc1cccc(C(=O)N2CCCCC2c2nnc(C)[nH]2)c1` (centres unmarked) [Compound M754-0809]: the remaining activity at 1800 µM under setting [2] was found to be 89%. With `CCN(CC)CCNc1c(-c2ccccc2)c(=O)c1=O` [Compound E470-0370], the remaining activity at 1800 µM (read-out: DdlB RA) turned out to be 94%. On to `Cc1nc2c(C)cccn2c1C(=O)O` [Compound 8019-6472], for which the remaining activity at 2600 µM (read-out: DdlB RA) came out at 93%.

For `Oc1ccccc1` [FLD105], the remaining activity at 2500 µM (read-out: DdlB RA) was determined as 95%. Still for that read-out and setting: with `Nc1ccc(F)c(Cl)c1` [FLD050] the figure was 98%.

Turning to `Cn1ncc(C(=O)O)c1C(=O)NCC1CCCO1` (centres unmarked) [Compound Y504-5972], the remaining activity at 2000 µM (read-out: DdlB RA) stood at 96%. Take `CN1CCN(C)C1c1ccccc1O` [FF01-2467]: the remaining activity at 3100 µM (read-out: DdlB RA) is 93%. In the case of `Cc1c(-c2cc(C(=O)O)n3nccc3n2)cnn1C` [Compound Y504-7677], the remaining activity at 1900 µM (read-out: DdlB RA) was 86%.

With `O=C(O)CCc1nnc2ccccn2c1=O` [Compound Y042-3065], the remaining activity at 2300 µM (read-out: DdlB RA) was 102%. For the compound `Cc1ccc(F)cc1S(=O)(=O)N(C)CC1CCOC1` (centres unmarked) [Compound S213-1645], the remaining activity at 2100 µM under setting [2] stood at 102%. Regarding `O=C(O)CCCC1C(=O)Nc2ccccc21` (centres unmarked) [Compound 8020-0144], the remaining activity at 2300 µM (read-out: DdlB RA) was 93%. Regarding `N#Cc1cccc2[nH]ccc12` [Compound 8019-9980], the remaining activity at 4200 µM (read-out: DdlB RA) came to 101%.

As to `Nc1cc(O)[nH]n1` [FLD042], the remaining activity at 2500 µM under setting [1] turned out to be 100%. On to `CC(C)(C)NS(=O)(=O)Cc1ccc(Cl)cc1` [Compound Y031-1123], for which the remaining activity at 2300 µM (read-out: DdlB RA) was found to be 91%. For `CC(C)C(=O)N1CCC2(CCNC(=O)CC2)CC1` [Compound S509-1270], the remaining activity at 2000 µM (read-out: DdlB RA) was 93%. For `O=S(=O)(O)c1ccc2[nH]nnc2c1` [Compound 8020-8129], under setting [3], the remaining activity at 2500 µM was found to be 93%.

As for `CC(C)CS(=O)(=O)N1CCc2ccccc2C1` [Compound Y200-6914], the remaining activity at 2400 µM (read-out: DdlB RA) was 73%. For `CCOC(=O)N1CCC(N)CC1` [FLD189], the remaining activity at 2500 µM under setting [1] came to 98%.
